How the values were obtained:
[1] = molecular target: T1, Proteinase-activated receptor 4 (Homo sapiens) (UniProt Q96RI0); assay: Antagonist activity at PAR4 in human platelet rich plasma assessed as inhibition of gamma-PAR4 agonist peptide (AYPGKF-NH2)-induced platelet aggregation at 200 nM preincubated for 5 mins followed by peptide addition and measured after 5 mins by aggregometer relative to control; format: cell-based; details: time 10.0 min
T1 sequence (whole entry): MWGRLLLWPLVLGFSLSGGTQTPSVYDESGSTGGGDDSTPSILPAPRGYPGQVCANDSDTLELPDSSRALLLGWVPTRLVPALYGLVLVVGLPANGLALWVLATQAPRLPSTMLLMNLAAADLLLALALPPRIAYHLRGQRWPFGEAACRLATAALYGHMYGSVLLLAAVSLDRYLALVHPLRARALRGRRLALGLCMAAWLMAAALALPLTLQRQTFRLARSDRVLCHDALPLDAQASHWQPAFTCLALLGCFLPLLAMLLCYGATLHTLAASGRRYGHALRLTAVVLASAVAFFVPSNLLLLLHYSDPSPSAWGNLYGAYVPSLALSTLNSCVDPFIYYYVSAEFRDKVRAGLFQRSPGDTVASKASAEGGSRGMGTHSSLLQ

[2] = Toxicity in male C57BL/6 mouse assessed as prolongation of bleeding time at 10 mg/kg, po measured after 1.5 hrs by tail bleeding assay; format: organism-based; details: in vivo

Row | Structure (SMILES) | inhibition ([1]; filed as antagonist) [%] | further results
1 | COc1ccc2nc(-c3cc(C)cc4nc(OC(C)C)ncc34)sc2c1 | 42.9 | –
2 | COc1ncc2c(-c3nc4cc(F)c5c(c4s3)C[C@H](COC(=O)Nc3ccc(C)cc3)O5)cc(C)cc2n1 | 79.6 | –
3 | COc1cc(Cl)c2nc(-c3cc(C)cc4cnc(OC(F)F)nc34)sc2c1 | 74.5 | –
4 | COc1ccc(NC(=O)OC[C@H]2Cc3c(c(F)cc4nc(-c5cc(C)cc6nc(OC)ncc56)sc34)O2)c(C)c1 | 55.3 | –
5 | COc1cc(Cl)c2nc(-c3cc(C)cc4cnc(N(C)C)nc34)sc2c1 | 47.6 | –
6 | COCc1ncc2c(-c3nc4cc(F)c(OCCOC(=O)Nc5ccc(C(=O)N6CCOCC6)cc5)cc4s3)cc(C)cc2n1 | 67.1 | –
7 | CCOc1ncc2c(-c3nc4c(Cl)cc(OC)cc4s3)cc(C)cc2n1 | 43.4 | –
8 | COc1ncc2cc(C)cc(-c3nc4c(C)cc5c(c4s3)OCCO5)c2n1 | 65.3 | –
9 | COCOc1ncc2c(-c3nc4cc(F)c(OC)cc4s3)cc(C)cc2n1 | 86.5 | –
10 | COCOc1ncc2c(-c3nc4c(F)cc(OC)cc4s3)cc(C)cc2n1 | 77.4 | –
11 | COCOc1ncc2c(-c3nc4c(Cl)cc(OC)cc4s3)cc(C)cc2n1 | 83.8 | –
12 | COc1cc(OC)c2nc(-c3cc(C)cc4nc(OC)ncc34)sc2c1 | 47.8 | –
13 | COCc1ncc2c(-c3nc4cc(F)c(OCCOC(=O)N5CCOCC5)cc4s3)cc(C)cc2n1 | – | inhibition [1]: 34.5%
14 | CCOc1ncc2c(-c3nc4cc(F)c(OC)cc4s3)cc(C)cc2n1 | 40.4 | –
15 | COc1cc(C)c2nc(-c3cc(C)cc4nc(OC)ncc34)sc2c1 | 70.2 | –
16 | COc1cc2sc(-c3cc(C)cc4nc(SC)ncc34)nc2cc1F | 74.8 | –
17 | COc1cc(Cl)c2nc(-c3cc(C)cc4nc(OC(C)C)ncc34)sc2c1 | – | inhibition [1]: 37.7%
18 | COc1ccc(NC(=O)OC[C@H]2Cc3c(c(F)cc4nc(-c5cc(C)cc6nc(OC)ncc56)sc34)O2)cn1 | – | inhibition [1]: 32.9%
19 | CCOc1ncc2c(-c3nc4c(F)cc(OC)cc4s3)cc(C)cc2n1 | – | inhibition [1]: 39.1%

Row | Structure (SMILES) | inhibition ([1]; filed as antagonist) [%] | further results
20 | COc1cc(Cl)c2nc(-c3cc(C)cc4nc(OC)ncc34)sc2c1 | 85.2 | –
21 | COc1cc(F)c2nc(-c3cc(C)cc4cnc(OC)nc34)sc2c1 | 89.6 | –
22 | COC(=O)OC[C@H]1Cc2c(c(F)cc3nc(-c4cc(C)cc5nc(OC)ncc45)sc23)O1 | – | inhibition [1]: 34.9%
23 | COc1ncc2cc(C)cc(-c3nc4ccccc4s3)c2n1 | – | inhibition [1]: 29.7%
24 | CNc1ncc2cc(C)cc(-c3nc4c(Cl)cc(OC)cc4s3)c2n1 | 58.1 | –
25 | COc1cc(Cl)c2nc(-c3cc(C)cc4cnc(SC)nc34)sc2c1 | 69.2 | –
26 | COc1cc(Cl)c2nc(-c3cc(C)cc4cnc(OC)nc34)sc2c1 | 86.4 | –
27 | COc1cc(Cl)c2nc(-c3cc(C)cc4cnc(C)nc34)sc2c1 | 85.7 | –
28 | COc1ccc(NC(=O)OC[C@H]2Cc3c(c(F)cc4nc(-c5cc(C)cc6nc(OC)ncc56)sc34)O2)cc1 | 70.5 | –
29 | COc1ncc2c(-c3nc4ccccc4s3)cc(C)cc2n1 | 49.6 | –
30 | COCOc1ncc2c(-c3nc4ccc(OC)cc4s3)cc(C)cc2n1 | 73.9 | –
31 | COc1ncc2c(-c3nc4cc(F)c5c(c4s3)C[C@H](COC(=O)N3CCOCC3)O5)cc(C)cc2n1 | 64.7 | –
32 | COc1ccc2nc(-c3cc(C)cc4nc(SC)ncc34)sc2c1 | 62.3 | –
33 | COc1ncc2c(-c3nc4cc(F)c5c(c4s3)C[C@@H](COC(=O)Nc3ccc(C(=O)N4CCOCC4)cc3)O5)cc(C)cc2n1 | 61.2 | –
34 | COCc1ncc2c(-c3nc4cc(F)c(OCCOC(=O)OC)cc4s3)cc(C)cc2n1 | – | inhibition [1]: 35.3%
35 | COc1ncc2cc(C)cc(-c3nc4c(Cl)cc(Cl)cc4s3)c2n1 | – | inhibition [1]: 34.7%
36 | COc1cc(Cl)c2nc(-c3cc(C)cc4nc(SC)ncc34)sc2c1 | 68.2 | –
37 | COc1ccc2nc(-c3cc(C)cc4nc(OC)ncc34)sc2c1 | 77.4 | –
38 | CCOc1ncc2cc(C)cc(-c3nc4c(Cl)cc(OC)cc4s3)c2n1 | – | inhibition [1]: 36.7%

Row | Structure (SMILES) | inhibition ([1]; filed as antagonist) [%] | further results
39 | COc1cc(Cl)c2nc(-c3cc(C)cc4cncnc34)sc2c1 | 82.3 | –
40 | COc1cc(Cl)c2nc(-c3cc(C)cc4cnc(OC(C)C)nc34)sc2c1 | – | inhibition [1]: 26.3%
41 | COc1ncc2c(-c3nc4cc(F)c5c(c4s3)C[C@@H](COC(=O)Nc3cc(F)cc(C#N)c3)O5)cc(C)cc2n1 | 65.8 | –
42 | COc1ncc2c(-c3nc4cc(F)c5c(c4s3)C[C@H](COC(=O)Nc3ccc(C(=O)N4CCOCC4)cc3)O5)cc(C)cc2n1 | – | inhibition [1]: 38.1%
43 | CNc1ncc2c(-c3nc4c(Cl)cc(OC)cc4s3)cc(C)cc2n1 | 58.7 | –
44 | COc1ncc2c(-c3nc4cc(F)c5c(c4s3)C[C@@H](COC(=O)N3CCOCC3)O5)cc(C)cc2n1 | 47.6 | –
45 | COc1ncc2cc(C)cc(-c3nc4cc(F)c(OC)cc4s3)c2n1 | 90.2 | –
46 | COc1cc(Cl)c2nc(-c3cc(C)cc4cnc(N5CCCCC5)nc34)sc2c1 | – | inhibition [1]: 39.5%
47 | COc1ncc2c(-c3nc4cc(F)c(OCCO)cc4s3)cc(C)cc2n1 | 84.1 | –
48 | COC(=O)[C@H](c1ccccc1Cl)N1CCc2sccc2C1 [CLOPIDOGREL] | – | Activity [2]: Toxic
49 | COc1ncc2c(-c3nc4cc(F)c5c(c4s3)C[C@H](COC(=O)Nc3ccc(C)cc3F)O5)cc(C)cc2n1 | 82.7 | –
50 | COCc1ncc2c(-c3nc4cc(F)c(OCCOC(=O)Nc5cccc(C#N)c5)cc4s3)cc(C)cc2n1 | 77.1 | –
51 | COc1ccc2nc(-c3cc(C)cc4cnc(OC)nc34)sc2c1 | 79.8 | –
52 | COc1ncc2c(-c3nc4cc(F)c(OC)cc4s3)cc(C)cc2n1 | 88.3 | –
53 | COc1ncc2c(-c3nc4cc(F)c5c(c4s3)C[C@H](COC(=O)Nc3ccc(OC)c(F)c3)O5)cc(C)cc2n1 | 59.6 | –
54 | COc1ncc2c(-c3nc4cc(F)c5c(c4s3)C[C@H](COC(=O)Nc3cnc(C)nc3)O5)cc(C)cc2n1 | – | inhibition [1]: 27.5%
55 | COc1cc(F)c2nc(-c3cc(C)cc4nc(OC)ncc34)sc2c1 | 78.8 | –
56 | COc1cc(Cl)c2nc(-c3cc(C)cc4cnc(N5CCOCC5)nc34)sc2c1 | 52.3 | –

From ChEMBL document CHEMBL6083259, “Discovery of quinazoline-benzothiazole derivatives as novel potent protease-activated receptor 4 antagonists with improved pharmacokinetics and low bleeding liability” (Eur J Med Chem, 2024)
